# Results as given in patent publication US8383581B2, “Short-chain peptides as parathyroid hormone (PTH) receptor agonist” (Cadila Healthcare Limited, priority 2009, dated 2013).
# Where a SMILES comes first, the peptide text is derived from it. [ ]: non-standard residue; d: D form. ξ: configuration not given here. ξBip(2'-Et-4'-OMe) = CCc1cc(OC)ccc1-c1ccc(CC(N)C(=O)O)cc1; Arg(NO2) = N=C(NCCC[C@H](N)C(=O)O)N[N+](=O)[O-]; ξαMePhe(2,6-F2) = CC(N)(Cc1c(F)cccc1F)C(=O)O; ξαMePhe(2-F) = CC(N)(Cc1ccccc1F)C(=O)O; hhPhe = N[C@@H](CCCc1ccccc1)C(=O)O; hArg = N=C(N)NCCCC[C@H](N)C(=O)O; Cit = NC(=O)NCCC[C@H](N)C(=O)O; ξαMeF = CC(N)(Cc1ccccc1)C(=O)O; ξαMeM = CSCCC(C)(N)C(=O)O; Nle = CCCC[C@H](N)C(=O)O; Orn = NCCC[C@H](N)C(=O)O; ξαMeP = CC1(C(=O)O)CCCN1; Ac5c = NC1(C(=O)O)CCCC1; Ac3c = NC1(C(=O)O)CC1; Aib = CC(C)(N)C(=O)O
# Tests used:
# Format in all cases: in vitro ADME
# [1] = Stability of peptides in human plasma; conditions: human, plasma; for metabolised at 24 h, 2 μM: pH 7.8
# How it was run: (§1)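 Peptides at 2 μM final incubated 0–24 h at 37 °C (50 mM triethanolamine-HCl, pH 7.8) in each matrix, matrix level set to degrade ~50% PTH(1-34) in 1 h; TFA-quenched, C18 HPLC at 206 nm with ESI-MS peak identification; percent degradation from peak areas at each time point.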
# [2] = Stability of peptides in simulated gastric fluid (pH 1.5; HCl, NaCl and Pepsin); conditions: pH 1.5; for % degradation of peptides in 24 h when incubated with simulated gastric fluid: 2 μM; for half-life / half-life (t1/2) in simulated gastric fluid: simulated gi fluid
# [3] = Stability of peptides in simulated intestinal fluid (pH 7.5); conditions: pH 7.5; for half-life / half-life (t1/2) in simulated intestinal fluid: simulated gi fluid; for % degradation of peptides in 24 h when incubated with simulated intestinal fluid: 2 μM
# How it was run: as §1
# [4] = Stability of peptides in human liver microsomes; conditions: human, microsomes; for % degradation of peptides in 24 h when incubated with liver microsomes: 2 μM, pH 7.8
# How it was run: as §1
half-life [1] [h],"metabolised at 24 h, 2 μM [1] [%]",% degradation of peptides in 24 h when incubated with simulated gastric fluid [2] [%],half-life [2] [h],half-life [3] [h],% degradation of peptides in 24 h when incubated with simulated intestinal fluid [3] [%],half-life (t1/2) in liver microsomes [4],% degradation of peptides in 24 h when incubated with liver microsomes [4] [%],half-life [4] [h],half-life (t1/2) in simulated gastric fluid [2],half-life (t1/2) in simulated intestinal fluid [3],half-life (t1/2) in human plasma [1],SMILES
> 24,0,00,> 24,> 24,00,(5) h,32,,,,,CC[C@H](C)[C@H](NC(=O)[C@H](CCC(=O)O)NC(=O)C(C)(C)NC(=O)[C@@H](NC(=O)C(C)(C)N)C(C)C)C(=O)N[C@@H](CCC(N)=O)C(=O)N[C@@H](CC(C)C)C(=O)NC(C)(CCSC)C(=O)N[C@@H](Cc1c[nH]cn1)C(=O)N[C@@H](CCC(N)=O)C(=O)N[C@@H](CCCCNC(=N)N)C(=O)N[C@@H](C)C(=O)N[C@@H](CCCCNC(=N)N)C(=O)NC(C)(Cc1ccccc1F)C(=O)N[C@@H](CCCc1ccccc1)C(N)=O (some centres unmarked) [Seq. ID. 930] (H-[Aib]V[Aib]EIQL[ξαMeM]HQ[hArg]A[hArg][ξαMePhe(2-F)][hhPhe]-NH2)
> 24,0,50,4,> 24,00,,86,2,,,,"CCCC[C@H](NC(=O)C(C)(Cc1ccccc1F)NC(=O)[C@H](CCC(N)=O)NC(=O)[C@@H](NC(=O)[C@H](CCC(=O)O)NC(=O)C(C)(C)NC(=O)[C@@H](NC(=O)C1(N)CCCC1)C(C)C)[C@@H](C)CC)C(=O)N[C@@H](Cc1c[nH]cn1)C(=O)N[C@@H](CCC(N)=O)C(=O)N[C@@H](CCCNC(N)=O)C(=O)NC(C)(C)C(=O)NC(C)(Cc1c(F)cccc1F)C(=O)NC(C)(Cc1ccccc1F)C(N)=O (some centres unmarked) [Seq. ID. 380] (H-[Ac5c]V[Aib]EIQ[ξαMePhe(2-F)][Nle]HQ[Cit][Aib][ξαMePhe(2,6-F2)][ξαMePhe(2-F)]-NH2)"
> 24,0,00,> 24,> 24,00,(5) h,26,,,,,"CCCC[C@H](NC(=O)C(C)(Cc1ccccc1F)NC(=O)[C@H](CCC(N)=O)NC(=O)[C@@H](NC(=O)[C@H](CCC(=O)O)NC(=O)C(C)(C)NC(=O)[C@@H](NC(=O)C(C)(C)N)C(C)C)[C@@H](C)CC)C(=O)N[C@@H](Cc1c[nH]cn1)C(=O)N[C@@H](CCC(N)=O)C(=O)N[C@@H](CCCCNC(=N)N)C(=O)NC(C)(C)C(=O)NC(C)(C)C(=O)NC(C)(Cc1c(F)cccc1F)C(N)=O (some centres unmarked) [Seq. ID. 182] (H-[Aib]V[Aib]EIQ[ξαMePhe(2-F)][Nle]HQ[hArg][Aib][Aib][ξαMePhe(2,6-F2)]-NH2)"
> 22,5,55,4,> 24,00,,84,2,,,,CCCC[C@H](NC(=O)[C@H](CC(C)C)NC(=O)[C@H](CCC(N)=O)NC(=O)[C@@H](NC(=O)[C@H](CCC(=O)O)NC(=O)C(C)(C)NC(=O)[C@@H](NC(=O)C(C)(C)N)C(C)C)[C@@H](C)CC)C(=O)N[C@@H](Cc1c[nH]cn1)C(=O)N[C@@H](CCC(N)=O)C(=O)N[C@@H](CCCCNC(=N)N)C(=O)N[C@@H](C)C(=O)N[C@@H](CCCNC(=N)N)C(=O)NC(Cc1ccc(-c2ccc(OC)cc2CC)cc1)C(=O)N[C@@H](CCCc1ccccc1)C(N)=O (some centres unmarked) [Seq. ID. 730] (H-[Aib]V[Aib]EIQL[Nle]HQ[hArg]AR[ξBip(2'-Et-4'-OMe)][hhPhe]-NH2)
8,78,14,,,43,,80,1,(8) h,(6) h,,CCCC[C@H](NC(=O)C(C)(Cc1ccccc1F)NC(=O)[C@H](CCC(N)=O)NC(=O)[C@@H](NC(=O)[C@H](CCC(=O)O)NC(=O)C(C)(C)NC(=O)[C@@H](NC(=O)C1(N)CCCC1)C(C)C)[C@@H](C)CC)C(=O)N[C@@H](Cc1c[nH]cn1)C(=O)N[C@@H](CCC(N)=O)C(=O)N[C@@H](CCCCNC(=N)N)C(=O)NC(C)(C)C(=O)N[C@@H](CCCNC(=N)N[N+](=O)[O-])C(=O)NC(C)(Cc1ccccc1F)C(N)=O (some centres unmarked) [Seq. ID. 250] (H-[Ac5c]V[Aib]EIQ[ξαMePhe(2-F)][Nle]HQ[hArg][Aib][Arg(NO2)][ξαMePhe(2-F)]-NH2)

# The next lines start with the compound.
SMILES,half-life [1] [h],"metabolised at 24 h, 2 μM [1] [%]",% degradation of peptides in 24 h when incubated with simulated gastric fluid [2] [%],half-life [2] [h],half-life [3] [h],% degradation of peptides in 24 h when incubated with simulated intestinal fluid [3] [%],half-life (t1/2) in liver microsomes [4],% degradation of peptides in 24 h when incubated with liver microsomes [4] [%],half-life [4] [h],half-life (t1/2) in simulated gastric fluid [2],half-life (t1/2) in simulated intestinal fluid [3],half-life (t1/2) in human plasma [1]
"CCCC[C@H](NC(=O)C(C)(Cc1c(F)cccc1F)NC(=O)[C@H](CCC(N)=O)NC(=O)[C@@H](NC(=O)[C@H](CCC(=O)O)NC(=O)C(C)(C)NC(=O)[C@@H](NC(=O)C(C)(C)N)C(C)C)[C@@H](C)CC)C(=O)N[C@@H](Cc1c[nH]cn1)C(=O)N[C@@H](CCC(N)=O)C(=O)NC(C)(C)C(=O)NC(C)(C)C(=O)N[C@@H](CCCNC(=N)N[N+](=O)[O-])C(=O)NC(C)(Cc1ccccc1F)C(N)=O (some centres unmarked) [Seq. ID. 590] (H-[Aib]V[Aib]EIQ[ξαMePhe(2,6-F2)][Nle]HQ[Aib][Aib][Arg(NO2)][ξαMePhe(2-F)]-NH2)",> 24,0,00,> 24,> 24,00,(5) h,35,,,,
"CCCC[C@H](NC(=O)C(C)(Cc1c(F)cccc1F)NC(=O)[C@H](CCC(N)=O)NC(=O)[C@@H](NC(=O)[C@H](CCC(=O)O)NC(=O)C(C)(C)NC(=O)[C@@H](NC(=O)C(C)(C)N)C(C)C)[C@@H](C)CC)C(=O)N[C@@H](Cc1c[nH]cn1)C(=O)N[C@@H](CCC(N)=O)C(=O)N[C@@H](CCCN)C(=O)NC(C)(C)C(=O)NC(C)(Cc1c(F)cccc1F)C(=O)NC(Cc1ccc(-c2ccc(OC)cc2CC)cc1)C(=O)N[C@@H](CCCc1ccccc1)C(N)=O (some centres unmarked) [Seq. ID. 840] (H-[Aib]V[Aib]EIQ[ξαMePhe(2,6-F2)][Nle]HQ[Orn][Aib][ξαMePhe(2,6-F2)][ξBip(2'-Et-4'-OMe)][hhPhe]-NH2)",> 24,0,00,> 24,> 24,00,(5) h,33,,,,
CCCC[C@H](NC(=O)C(C)(Cc1ccccc1F)NC(=O)[C@H](CCC(N)=O)NC(=O)[C@@H](NC(=O)[C@H](CCC(=O)O)NC(=O)C(C)(C)NC(=O)[C@@H](NC(=O)C(C)(C)N)C(C)C)[C@@H](C)CC)C(=O)N[C@@H](Cc1c[nH]cn1)C(=O)N[C@@H](CCC(N)=O)C(=O)N[C@@H](CCCCNC(=N)N)C(=O)N1CCCC1(C)C(=O)N[C@@H](CCCCN)C(=O)NC(C)(Cc1ccccc1)C(N)=O (some centres unmarked) [Seq. ID. 25] (H-[Aib]V[Aib]EIQ[ξαMePhe(2-F)][Nle]HQ[hArg][ξαMeP]K[ξαMeF]-NH2),8,75,12,,,46,,83,1,(8) h,(6) h,
"CCCC[C@H](NC(=O)C(C)(Cc1c(F)cccc1F)NC(=O)[C@H](CCC(N)=O)NC(=O)[C@@H](NC(=O)[C@H](CCC(=O)O)NC(=O)C1(NC(=O)[C@@H](NC(=O)C2(N)CCCC2)C(C)C)CC1)[C@@H](C)CC)C(=O)N[C@@H](Cc1c[nH]cn1)C(=O)N[C@@H](CCC(N)=O)C(=O)N[C@@H](CCCCNC(=N)N)C(=O)N[C@@H](C)C(=O)N[C@@H](CCCNC(=N)N[N+](=O)[O-])C(=O)NC(C)(Cc1c(F)cccc1F)C(=O)N[C@@H](CCCc1ccccc1)C(N)=O (some centres unmarked) [Seq. ID. 710] (H-[Ac5c]V[Ac3c]EIQ[ξαMePhe(2,6-F2)][Nle]HQ[hArg]A[Arg(NO2)][ξαMePhe(2,6-F2)][hhPhe]-NH2)",> 24,0,00,> 24,> 24,00,(5) h,35,,,,
CCCC[C@H](NC(=O)[C@H](CC(C)C)NC(=O)[C@H](CCC(N)=O)NC(=O)[C@@H](NC(=O)[C@H](CCC(=O)O)NC(=O)C(C)(C)NC(=O)[C@@H](NC(=O)C(C)(C)N)C(C)C)[C@@H](C)CC)C(=O)N[C@@H](Cc1c[nH]cn1)C(=O)N[C@@H](CCC(N)=O)C(=O)N[C@@H](CCCCNC(=N)N)C(=O)NC(C)(C)C(=O)N[C@@H](CCCCN)C(=O)NC(C)(Cc1ccccc1)C(N)=O (some centres unmarked) [Seq. ID. 10] (H-[Aib]V[Aib]EIQL[Nle]HQ[hArg][Aib]K[ξαMeF]-NH2),,70,100,0.5,0.5,100,,100,0.5,,,(9) h
